Data reported in PubChem BioAssay (NCI).
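Cultured in 96-well plates, cells were exposed to test compound for 48 hours across five concentrations. Here, GI50 denotes the concentration required for 50% inhibition of growth. TGI: total growth inhibition.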

Key:
Test in all cases: growth of human tumour cells (NCI), 48 h
CAKI-1 renal = tested on: CAKI-1 renal
EKVX NSCLC = tested on: EKVX NSCLC
HCT-15 colon = tested on: HCT-15 colon
HOP-62 NSCLC = tested on: HOP-62 NSCLC
MALME-3M melanoma = tested on: MALME-3M melanoma
OVCAR-4 ovarian = tested on: OVCAR-4 ovarian
SF-539 CNS = tested on: SF-539 CNS
SK-MEL-2 melanoma = tested on: SK-MEL-2 melanoma
A498 renal = tested on: A498 renal
SF-268 CNS = tested on: SF-268 CNS

SMILES | TGI (CAKI-1 renal) | TGI (EKVX NSCLC) | TGI (HCT-15 colon) | TGI (HOP-62 NSCLC) | TGI (MALME-3M melanoma) | TGI (OVCAR-4 ovarian) | TGI (SF-539 CNS) | TGI (SK-MEL-2 melanoma) | TGI (A498 renal) | TGI (SF-268 CNS) | GI50 (A498 renal) | GI50 (CAKI-1 renal) | GI50 (EKVX NSCLC) | GI50 (HCT-15 colon) | GI50 (HOP-62 NSCLC) | GI50 (MALME-3M melanoma) | GI50 (OVCAR-4 ovarian) | GI50 (SF-268 CNS) | GI50 (SF-539 CNS) | GI50 (SK-MEL-2 melanoma)
COc1cccc(C(=O)N2CCc3ccccc32)c1OC | > 100 µM | > 100 µM | 61.9 µM | > 100 µM | > 100 µM | > 100 µM | > 100 µM | > 100 µM | – | – | – | – | – | – | – | – | – | – | – | –
CCCCCCCC(=O)OC(CBr)COC(=O)C(C)(C)C (configuration not stated) | > 100 µM | > 100 µM | > 100 µM | > 100 µM | > 100 µM | > 100 µM | – | > 100 µM | > 100 µM | > 100 µM | – | – | – | – | – | – | – | – | – | –
C1CSCCCSCCSCCCSC1 | > 100 µM | > 100 µM | > 100 µM | > 100 µM | – | > 100 µM | > 100 µM | > 100 µM | > 100 µM | > 100 µM | – | – | – | – | – | – | – | – | – | –
Nc1nnc2cc(Cl)ccc2n1 | > 100 µM | > 100 µM | > 100 µM | > 100 µM | > 100 µM | > 100 µM | > 100 µM | – | > 100 µM | > 100 µM | > 100 µM | > 100 µM | 23.6 µM | > 100 µM | > 100 µM | > 100 µM | > 100 µM | > 100 µM | > 100 µM | –
CCC(=O)C(C)C1=Nc2nnc(CCCCCCCc3nnc4n3C(=O)C(C(C)C(=O)CC)=N4)n2C1=O (configuration not stated) | > 100 µM | > 100 µM | > 100 µM | > 100 µM | > 100 µM | – | > 100 µM | – | > 100 µM | > 100 µM | – | – | – | – | – | – | – | – | – | –
Cc1nc2ccc(Nc3nc(NCCN4CCOCC4)nc(Nc4ccc(F)cc4)n3)cc2n1Cc1ccccc1 | 65 µM | – | 5.68 µM | 6.23 µM | 3.6 µM | – | 3.23 µM | 4.61 µM | 5.13 µM | 33.9 µM | 1.35 µM | 2.55 µM | – | 2.16 µM | 1.88 µM | 2.04 µM | – | 5.82 µM | 1.63 µM | 2.16 µM
COC1OC(CO)C(O)C(O)C1Br (configuration not stated) | > 100 µM | – | > 100 µM | > 100 µM | > 100 µM | > 100 µM | > 100 µM | – | > 100 µM | > 100 µM | – | – | – | – | – | – | – | – | – | –
O=C(Nc1ccc(F)cc1)c1c(NC(=O)C(F)(F)F)sc2c1CCCCC2 | 5.17 µM | – | 10.8 µM | 6.48 µM | 5.72 µM | 8.34 µM | 11.8 µM | 6.75 µM | 0.752 µM | 88 µM | 0.0527 µM | 1.35 µM | – | 2.59 µM | 2.26 µM | 1.81 µM | 1.65 µM | 2.28 µM | 2.04 µM | 1.47 µM
CN(CN1C(=O)C2Cc3ccccc3CN2C1=O)c1ccccn1 (configuration not stated) | > 100 µM | – | > 100 µM | > 100 µM | > 100 µM | > 100 µM | > 100 µM | > 100 µM | > 100 µM | > 100 µM | – | – | – | – | – | – | – | – | – | –
O=C(O)/C(=C/c1c(O)ccc2ccccc12)c1csc(-c2nc(/C(=C\c3c(O)ccc4ccccc34)C(=O)O)cs2)n1 | – | > 100 µM | 39 µM | 22.2 µM | 3.95 µM | – | 19.1 µM | 10.2 µM | 41.7 µM | 26.3 µM | – | – | – | – | – | – | – | – | – | –
COc1cc(/C=C2\CC3C4CC=C5C[C@@H](OC(C)=O)CC[C@]5(C)C4CC[C@]3(C)C2=O)ccc1OCCCn1ccnc1 (some centres not stated) | 27.3 µM | 5.18 µM | 20.4 µM | 16.4 µM | – | – | 14.2 µM | > 50 µM | 21.6 µM | 21.5 µM | 9.31 µM | 5.81 µM | 0.0741 µM | 9.52 µM | 8.83 µM | – | – | 9.13 µM | 6.89 µM | 16.8 µM
O=C(Nc1ccc(Cl)cc1)c1ccc(NC2=C(Cl)C(=O)N(Cc3ccccc3)C2=O)cc1 | 31.5 µM | 89.5 µM | > 100 µM | 27.7 µM | – | 43.4 µM | 41.3 µM | 40.4 µM | 47.8 µM | 50.2 µM | 17.7 µM | 15.3 µM | 26.7 µM | 24.4 µM | 14.1 µM | – | 18.3 µM | 17.8 µM | 17.5 µM | 14.2 µM
COc1ccc(-c2cc(/C=C3\C(=O)Nc4ccc(Cl)cc43)[nH]n2)cc1 | 13.8 µM | – | 14.2 µM | 15.8 µM | 20 µM | 17.3 µM | 7.68 µM | – | 16.3 µM | 19.1 µM | 3.83 µM | 3.31 µM | – | 2.8 µM | 4.39 µM | 6.85 µM | 4.31 µM | 6.48 µM | 2.63 µM | –
COc1cc2noc(-c3ccccc3)c2cc1OC | 92.2 µM | – | > 100 µM | > 100 µM | > 100 µM | > 100 µM | > 100 µM | > 100 µM | 83.1 µM | > 100 µM | – | – | – | – | – | – | – | – | – | –
Nc1ccc2c(c1)NCCN2 | > 100 µM | > 100 µM | > 100 µM | > 100 µM | > 100 µM | > 100 µM | > 100 µM | > 100 µM | – | > 100 µM | – | – | – | – | – | – | – | – | – | –
Cc1nc2c(n1C(C)(C)C)C(=O)c1ccccc1C2=O | – | > 100 µM | > 100 µM | > 100 µM | > 100 µM | > 100 µM | > 100 µM | > 100 µM | – | > 100 µM | – | – | – | – | – | – | – | – | – | –
C(CCC[Te][Te]CCCCCCOC1CCCCO1)CCOC1CCCCO1 (configuration not stated) | 82.6 µM | – | 60.6 µM | 33.7 µM | 20.5 µM | – | 32.1 µM | 28.3 µM | 37.8 µM | 41.2 µM | – | – | – | – | – | – | – | – | – | –
O=C(Nc1nc2ccccc2n1Cc1ccccc1)NC12CC3CC(CC(C3)C1)C2 | > 100 µM | > 100 µM | > 100 µM | > 100 µM | > 100 µM | 82.8 µM | > 100 µM | > 100 µM | – | 35.5 µM | – | – | – | – | – | – | – | – | – | –
COc1cc(/C=C\[N+](=O)[O-])ccc1OCc1ccccc1 | 13.2 µM | 17.6 µM | 3.51 µM | 6.58 µM | 9.38 µM | 13.1 µM | 4.18 µM | 14.6 µM | – | 11.5 µM | – | 3.05 µM | 3.71 µM | 1.72 µM | 2.35 µM | 2.54 µM | 3.07 µM | 2.83 µM | 2.09 µM | 3.67 µM
